In patent US10822349B2, “Macrocyclic purines for the treatment of viral infections” (JANSSEN SCIENCES IRELAND UNLIMITED COMPANY, priority 2012, dated 2020):

Tests used:
human TLR7 = target: T1, human TLR7 (Homo sapiens, UniProt Q9NYK1); experiment: TLR7 cellular reporter assay (HEK293 TLR7-NFκB-luc); assay type: cell-based; settings: lowest effective concentration; HEK293 transiently transfected with TLR7 and NFκB-luc; 6 hours incubation
T1 construct: expressed in transfected cells; host or cells: HEK293
T1 sequence (Q9NYK1 27-1049): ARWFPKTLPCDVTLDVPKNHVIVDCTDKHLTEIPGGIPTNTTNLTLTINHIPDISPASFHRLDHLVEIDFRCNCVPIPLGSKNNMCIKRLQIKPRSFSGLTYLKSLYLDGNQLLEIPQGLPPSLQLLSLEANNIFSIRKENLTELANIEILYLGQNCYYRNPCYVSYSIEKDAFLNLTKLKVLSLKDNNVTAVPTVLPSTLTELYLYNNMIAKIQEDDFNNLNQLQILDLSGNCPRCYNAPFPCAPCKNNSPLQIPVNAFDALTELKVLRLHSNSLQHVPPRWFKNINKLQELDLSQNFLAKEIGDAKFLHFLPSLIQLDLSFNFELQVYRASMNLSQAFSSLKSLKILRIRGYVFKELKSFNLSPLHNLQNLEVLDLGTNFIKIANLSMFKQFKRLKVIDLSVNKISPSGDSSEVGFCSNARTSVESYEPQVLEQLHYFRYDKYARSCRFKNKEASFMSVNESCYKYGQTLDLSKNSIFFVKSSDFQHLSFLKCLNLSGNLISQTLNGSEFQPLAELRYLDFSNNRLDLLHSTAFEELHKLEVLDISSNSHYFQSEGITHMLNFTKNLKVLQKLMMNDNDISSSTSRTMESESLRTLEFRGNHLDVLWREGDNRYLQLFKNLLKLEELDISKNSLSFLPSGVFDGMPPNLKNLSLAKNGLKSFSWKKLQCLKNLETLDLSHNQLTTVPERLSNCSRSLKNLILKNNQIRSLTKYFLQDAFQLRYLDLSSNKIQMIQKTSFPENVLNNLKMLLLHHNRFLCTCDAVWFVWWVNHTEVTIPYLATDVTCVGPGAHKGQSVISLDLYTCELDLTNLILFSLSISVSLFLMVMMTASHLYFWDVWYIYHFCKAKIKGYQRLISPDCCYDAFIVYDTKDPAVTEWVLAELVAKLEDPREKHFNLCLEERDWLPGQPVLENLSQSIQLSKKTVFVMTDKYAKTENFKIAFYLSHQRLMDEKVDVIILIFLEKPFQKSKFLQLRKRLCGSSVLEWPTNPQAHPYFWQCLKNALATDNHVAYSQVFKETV
Description: The ability of compounds to activate human TLR7 and TLR8 was assessed in a cellular reporter assay using HEK293 cells transiently transfected with a TLR7 or TLR8 expression vector and NFκB-luc reporter construct. Briefly, HEK293 cells were grown in culture medium (DMEM supplemented with 10% FCS and 2 mM Glutamine). For transfection of cells in 10 cm dishes, cells were detached with Trypsin-EDTA, transfected with a mix of CMV-TLR7 or TLR8 plasmid (750 ng), NFκB-luc plasmid (375 ng) and a transfection reagent and incubated 48 hours at 37° C. in a humidified 5% CO2 atmosphere. Transfected cells were then detached with Trypsin-EDTA, washed in PBS and resuspended in medium to a density of 1.67×10^5 cells/mL. Thirty microliters of cells were then dispensed into each well in 384-well plates, where 10 μL of compound in 4% DMSO was already present. Following 6 hours incubation at 37° C., 5% CO2, the luciferase activity was determined by adding 15 μl of Steady Lite Plus substrate (Perkin Elmer) to each well and readout performed on a ViewLux ultraHTS microplate imager (Perkin Elmer). Dose response curves were generated from measurements performed in quadruplicates. Lowest effective concentrations (LEC) values, defined as the concentration that induces an effect which is at least two fold above the standard deviation of the assay, were determined for each compound.

[1] = tested on: interferon production in human PBMC; experiment: Interferon production in human PBMC, read out on HEK-ISRE-luc reporter cells; assay type: cell-based; settings: lowest effective concentration, PBMC supernatant after overnight incubation transferred to HEK-ISRE-luc cells; for PBMC HEK-ISRE-luc (LEC; μM): 24 hours; for minimal effective concentration: Homo sapiens, PBMC, 24 h, read-out: PBMC HEK-ISRE-luc (LEC; μM)
Description: Activation of human TLR7 results in robust production of interferon by plasmacytoid dendritic cells present in human blood. The potential of compounds to induce interferon was evaluated by determination of interferon in the conditioned media from peripheral blood mononuclear cells (PBMC). The presence of interferon in the samples was determined, using an interferon reporter cell line stably expressing an interferon-stimulated responsive elements (ISRE)-luc reporter construct. The ISRE element with sequence GAAACTGAAACT (SEQ ID: 1) is highly responsive to the STAT1-STAT2-IRF9 transcription factor, which becomes activated upon binding of IFN-I to the IFN receptor. Briefly, PBMCs were prepared from buffy coats of at least two donors using a standard Ficoll centrifugation protocol. Isolated PBMCs were resuspended in RPMI medium supplemented with 10% human AB serum and 2×10^5 cells/well were dispensed into 384-well plates containing compounds (70 μL total volume). After overnight incubation of the PBMCs with the compounds, 10 μL of supernatant was transferred to 384-well plates containing 5×10^3 HEK-ISRE-luc cells/well in 30 μL (plated the day before). Following 24 hours of incubation, activation of the ISRE elements was measured by assaying luciferase activity using 40 μL/well Steady Lite Plus substrate (Perkin Elmer) and measured with ViewLux ultraHTS microplate imager (Perkin Elmer). The stimulating activity of each compound on the HEK-ISRE-luc cells was reported as LEC. The LEC in turn indicates the degree of ISRE activation on transfer of a defined amount of PBMC culture medium. Recombinant interferon alfa-2a (Roferon-A) was used as a standard control compound.

SMILES | HEK293 TLR7-NFκB-luc (LEC; μM) (human TLR7) | PBMC HEK-ISRE-luc (LEC; μM) [1] | minimal effective concentration [1]
Nc1nc2nc3c1nc(O)n3Cc1cccc(c1)C/C=C\CCO2 [Compound 1] | 0.154 µM | 0.081 µM | 
Nc1nc2nc3c1nc(O)n3Cc1cccc(c1)CCCCCO2 [Compound 2] | 0.51 µM |  | 0.22 µM
Nc1nc2nc3c1nc(O)n3Cc1cccc(c1)C/C=C/CCCn1ccnc1-2 [Compound 3] | 1.05 µM |  | 0.14 µM
Nc1nc2nc3c1nc(O)n3Cc1cccc(c1)CCCCCCn1ccnc1-2 [Compound 4] | 3.27 µM |  | 0.64 µM
Nc1nc2nc3c1nc(O)n3Cc1cccc(c1)CC(=O)NCCCO2 [Compound 5] | 0.24 µM |  | 0.044 µM
Nc1nc2nc3c1nc(O)n3Cc1ccc(nc1)OCC(=O)NCCCO2 [Compound 6] | >10 µM |  | 1.73 µM
Nc1nc2nc3c1nc(O)n3Cc1cccc(c1)C/C=C/CCC(CO)N2 (centres unmarked) [Compound 7] | 0.87 µM |  | 0.31 µM
Nc1nc2nc3c1nc(O)n3Cc1cccc(c1)OCCCCN2 [Compound 8] | 2.42 µM |  | 0.68 µM
Nc1nc2nc3c1nc(O)n3Cc1cccc(n1)OCC(=O)NCCCO2 [Compound 9] | 0.30 µM |  | 0.098 µM
Nc1nc2nc3c1nc(O)n3Cc1cccc(c1)CCCCCC(CO)N2 (centres unmarked) [Compound 10] | 5.26 µM |  | 0.53 µM
Nc1nc2nc3c1nc(O)n3Cc1cccc(c1)OCCCCO2 [Compound 11] | 0.050 µM |  | 0.022 µM
Nc1nc2nc3c1nc(O)n3Cc1cccc(c1)OCCOCCO2 [Compound 12] | 0.39 µM |  | 0.043 µM
Nc1nc2nc3c1nc(O)n3Cc1cccc(c1)OCCOCCN2 [Compound 13] | 14.69 µM |  | 4.7 µM
Nc1nc2nc3c1nc(O)n3Cc1cccc(c1)OCCCCCN2 [Compound 14] | 1.68 µM |  | 0.51 µM
Nc1nc2nc3c1nc(O)n3Cc1cccc(c1)C/C=C/CCO2 [Compound 15] | 0.12 µM |  | 0.016 µM
Nc1nc2nc3c1nc(O)n3Cc1cccc(c1)C/C=C/CCCO2 [Compound 16] | 0.375 µM |  | 0.11 µM
Nc1nc2nc3c1nc(O)n3Cc1cccc(c1)C/C=C\CCO2 [Compound 17] | 0.067 µM | 0.013 µM | 
Nc1nc2nc3c1nc(O)n3Cc1cccc(c1)OC/C=C/CCC(CO)N2 (centres unmarked) [Compound 18] | 0.82 µM |  | 0.056 µM

SMILES | HEK293 TLR7-NFκB-luc (LEC; μM) (human TLR7) | PBMC HEK-ISRE-luc (LEC; μM) [1] | minimal effective concentration [1]
Nc1nc2nc3c1nc(O)n3Cc1cccc(c1)OCCCCCC(CO)N2 (centres unmarked) [Compound 19] | 2.24 µM |  | 0.14 µM
Nc1nc2nc3c1nc(O)n3Cc1cccc(c1)OCC/C=C\CO2 [Compound 20] | 0.74 µM |  | 0.15 µM
Nc1nc2nc3c1nc(O)n3Cc1cccc(c1)OCC/C=C/CO2 [Compound 21] | 0.3 µM |  | 0.05 µM
Nc1nc2nc3c1nc(O)n3Cc1cccc(c1)OC/C=C\CO2 [Compound 22] | 0.12 µM |  | 0.054 µM
Nc1nc2nc3c1nc(O)n3Cc1cccc(c1)OC/C=C/CO2 [Compound 23] | 0.043 µM |  | 0.012 µM
Nc1nc2nc3c1nc(O)n3Cc1cccc(n1)COCCCCO2 [Compound 24] | 1.05 µM |  | 0.15 µM
Nc1nc2nc3c1nc(O)n3Cc1ccc(nc1)OCC/C=C/CCO2 [Compound 25] | 20.22 µM |  | 3.61 µM
Nc1nc2nc3c1nc(O)n3Cc1cccc(c1)OC/C=C\CCO2 [Compound 26] | 0.027 µM |  | 0.093 µM
Nc1nc2nc3c1nc(O)n3Cc1cccc(c1)OC/C=C/CCO2 [Compound 27] | 1.31 µM |  | 0.11 µM
Nc1nc2nc3c1nc(O)n3Cc1cccc(c1)C/C=C/CCCN2 [Compound 28] | 0.77 µM |  | 0.26 µM
Nc1nc2nc3c1nc(O)n3Cc1cccc(c1)C/C=C/CCN2 [Compound 29] | 0.81 µM |  | 0.15 µM
Nc1nc2nc3c1nc(O)n3CCc1cccc(c1)C/C=C/CCO2 [Compound 82] | 3.95 µM |  | 
Nc1nc2nc3c1nc(O)n3Cc1ccc(F)c(c1)OC/C=C/CO2 [Compound 87] | 0.034 µM |  | 
Nc1nc2nc3c1nc(O)n3Cc1ccc(F)c(c1)OC/C=C\CO2 [Compound 88] | 0.11 µM |  | 
Nc1nc2nc3c1nc(O)n3Cc1ccc(F)c(c1)OC/C=C\CN2 [Compound 89] | 0.4 µM |  | 
Nc1nc2nc3c1nc(O)n3Cc1ccc(F)c(c1)OC/C=C/CN2 [Compound 90] | 0.063 µM |  | 
Nc1nc2nc3c1nc(O)n3Cc1ccc(F)c(c1)OCCCCO2 [Compound 91] | 0.14 µM |  | 
Nc1nc2nc3c1nc(O)n3Cc1ccc(F)c(c1)OCCCCN2 [Compound 92] | 0.47 µM |  | 
